Reference: patent publication US20210395239A1 (Hoffmann-La Roche Inc., priority 2018, published 2021)

Molecular target: T1, hTLR9 (Homo sapiens, UniProt Q9NR96)
T1 sequence (Q9NR96 26-1032): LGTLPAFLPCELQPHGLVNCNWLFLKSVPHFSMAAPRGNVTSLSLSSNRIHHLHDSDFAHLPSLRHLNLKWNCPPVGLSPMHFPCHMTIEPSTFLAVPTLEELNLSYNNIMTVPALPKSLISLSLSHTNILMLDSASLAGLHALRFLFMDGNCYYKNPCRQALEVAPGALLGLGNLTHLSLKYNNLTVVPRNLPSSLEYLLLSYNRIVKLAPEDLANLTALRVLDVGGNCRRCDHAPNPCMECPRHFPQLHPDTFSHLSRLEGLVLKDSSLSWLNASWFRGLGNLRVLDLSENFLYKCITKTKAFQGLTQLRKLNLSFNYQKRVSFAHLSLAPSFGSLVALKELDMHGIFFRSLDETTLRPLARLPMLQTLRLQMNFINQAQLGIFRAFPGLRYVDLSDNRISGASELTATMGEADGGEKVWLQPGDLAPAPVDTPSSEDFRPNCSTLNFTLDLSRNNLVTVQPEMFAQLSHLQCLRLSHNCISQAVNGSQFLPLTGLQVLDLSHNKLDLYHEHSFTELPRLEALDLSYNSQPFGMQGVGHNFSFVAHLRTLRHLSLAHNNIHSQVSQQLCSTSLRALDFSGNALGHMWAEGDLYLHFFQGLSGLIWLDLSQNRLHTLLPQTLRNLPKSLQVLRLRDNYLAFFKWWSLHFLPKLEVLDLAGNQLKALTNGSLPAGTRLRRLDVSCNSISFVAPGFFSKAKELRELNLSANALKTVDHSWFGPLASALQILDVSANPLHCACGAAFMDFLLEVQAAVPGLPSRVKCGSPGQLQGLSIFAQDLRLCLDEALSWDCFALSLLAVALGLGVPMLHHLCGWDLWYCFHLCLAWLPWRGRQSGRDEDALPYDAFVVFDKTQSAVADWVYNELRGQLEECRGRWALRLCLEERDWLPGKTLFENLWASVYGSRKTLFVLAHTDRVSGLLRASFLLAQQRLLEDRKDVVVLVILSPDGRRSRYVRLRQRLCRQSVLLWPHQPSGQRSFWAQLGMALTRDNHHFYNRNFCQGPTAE
Assay: HEK293-Blue-hTLR-9 cells assay (SEAP reporter, ODN2006 stimulation)
Assay type: cell-based
Parameters: host or cells: HEK293 (HEK-Blue hTLR9)
Conditions: HEK293-Blue-hTLR9 cells, ODN2006, 20 hrs; read-out: HEK/hTLR9 IC50
Outline: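 Antagonism read as lowered SEAP reporter absorbance (620–655 nm, QUANTI-Blue, 2 h, 37 °C) in supernatants. Before that, ODN2006-stimulated HEK293-Blue cells stably expressing human TLR9 were exposed to compound dilutions at 1% final DMSO for 20 h at 37 °C.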

IC50 | Compound
92 nM | C[C@@H]1CN(c2ccc(C#N)c3ncccc23)C[C@H](CN2CCN(c3cccc(C4CNCCO4)c3)CC2)O1 (stereo partly drawn) [Example 62, 5-[(2R,6S)-2-methyl-6-[[4-(3-morpholin-2-ylphenyl)piperazin-1-yl]methyl]-morpholin-4-yl]quinoline-8-carbonitrile]
46 nM | C[C@@H]1CN(c2ccc(C#N)n3ncc(F)c23)C[C@H](CN2CCN(c3ccc(N[C@H]4CNC[C@H]4F)nc3)CC2)O1 [Example 167, 3-fluoro-4-[(2S,6R)-2-[[4-[6-[[(3S,4R)-4-fluoropyrrolidin-3-yl]amino]-3-pyridyl]piperazin-1-yl]methyl]-6-methyl-morpholin-4-yl]pyrazolo[1,5-a]pyridine-7-carbonitrile]
116 nM | C[C@@H]1CN(c2ccc(C#N)n3ncc(F)c23)C[C@H](CN2CCN(c3ccc(N4C[C@H]5NCCO[C@@H]5C4)nc3)CC2)O1 [Example 168, 4-[(2S,6R)-2-[[4-[6-[(4aR,7aR)-3,4,4a,5,7,7a-hexahydro-2H-pyrrolo[3,4-b][1,4]oxazin-6-yl]-3-pyridyl]piperazin-1-yl]methyl]-6-methyl-morpholin-4-yl]-3-fluoro-pyrazolo[1,5-a]pyridine-7-carbonitrile]
78 nM | C[C@@H]1CN(c2ccc(C#N)n3ncc(F)c23)C[C@H](CN2CCN(c3ccc(N4CC5(CNCCO5)C4)nc3)CC2)O1 [Example 169, 3-fluoro-4-[(2R,6S)-2-methyl-6-[[4-[6-(5-oxa-2,8-diazaspiro[3.5]nonan-2-yl)-3-pyridyl]piperazin-1-yl]methyl]morpholin-4-yl]pyrazolo[1,5-a]pyridine-7-carbonitrile]
70 nM | C[C@@H]1CN(c2ccc(C#N)n3ncc(F)c23)C[C@H](CN2CCN(c3ccc(N4CC5(CN(C)C5)C4)nc3)CC2)O1 [Example 170, 3-fluoro-4-[(2R,6S)-2-methyl-6-[[4-[6-(6-methyl-2,6-diazaspiro[3.3]heptan-2-yl)-3-pyridyl]piperazin-1-yl]methyl]morpholin-4-yl]pyrazolo[1,5-a]pyridine-7-carbonitrile]
66 nM | C[C@@H]1CN(c2ccc(C#N)n3ncc(F)c23)C[C@H](CN2CCN(c3ccc(N4CC[C@@H](N)[C@H](F)C4)nc3)CC2)O1 [Example 175, 4-[(2S,6R)-2-[[4-[6-[(3R,4R)-4-amino-3-fluoro-1-piperidyl]-3-pyridyl]piperazin-1-yl]methyl]-6-methyl-morpholin-4-yl]-3-fluoro-pyrazolo[1,5-a]pyridine-7-carbonitrile]
98 nM | C[C@@H]1CN(c2ccc(C#N)n3ncc(F)c23)C[C@H](CN2CCN(c3ccc([C@@H]4CNCCO4)cc3)CC2)O1 [Example 177, 3-fluoro-4-[(2R,6S)-2-methyl-6-[[4-[4-[(2R)-morpholin-2-yl]phenyl]piperazin-1-yl]methyl]morpholin-4-yl]pyrazolo[1,5-a]pyridine-7-carbonitrile]
116 nM | C[C@@H]1CN(c2ccc(C#N)n3ncc(F)c23)C[C@H](CN2CCN(c3ccc(N4CCOC5(CNC5)C4)nc3)CC2)O1 [Example 178, 3-fluoro-4-[(2R,6S)-2-methyl-6-[[4-[6-(5-oxa-2,8-diazaspiro[3.5]nonan-8-yl)-3-pyridyl]piperazin-1-yl]methyl]morpholin-4-yl]pyrazolo[1,5-a]pyridine-7-carbonitrile]
157 nM | C[C@@H]1CN(c2ccc(C#N)n3ncc(F)c23)C[C@H](CN2CCN(c3ccc(N4CC5(CCN5)C4)nc3)CC2)O1 [Example 179, 4-[(2S,6R)-2-[[4-[6-(1,6-diazaspiro[3.3]heptan-6-yl)-3-pyridyl]piperazin-1-yl]methyl]-6-methyl-morpholin-4-yl]-3-fluoro-pyrazolo[1,5-a]pyridine-7-carbonitrile]

The next lines start with the molecule.

Compound | IC50
Cc1cc(N2CCN(C[C@H]3CN(c4ccc(C#N)c5ncccc45)C[C@@H](C)O3)CC2)nc(N2C[C@@H]3COC[C@@H](C2)N3)n1 [Example 58, 5-[(2R,6S)-2-methyl-6-[[4-[6-methyl-2-[(1R,5R)-3-oxa-7,9-diazabicyclo[3.3.1]nonan-7-yl]pyrimidin-4-yl]piperazin-1-yl]methyl]morpholin-4-yl]quinoline-8-carbonitrile] | 45 nM
CO[C@H]1CN(c2nc(C)cc(N3CCN(C[C@H]4CN(c5ccc(C#N)c6ncccc56)C[C@@H](C)O4)CC3)n2)C[C@H]1N [Example 60, 5-[(2R,6S)-2-methyl-6-[[4-[6-methyl-2-[cis-3-amino-4-methoxy-pyrrolidin-1-yl]pyrimidin-4-yl]piperazin-1-yl]methyl]morpholin-4-yl]quinoline-8-carbonitrile] | 32 nM
Cc1cc(N2CCN(C[C@H]3CN(c4ccc(C#N)c5ncccc45)C[C@@H](C)O3)CC2)nc(N2CC3(CNCCO3)C2)n1 [Example 61, 5-[(2R,6S)-2-methyl-6-[[4-[6-methyl-2-(5-oxa-2,8-diazaspiro[3.5]nonan-2-yl)pyrimidin-4-yl]piperazin-1-yl]methyl]morpholin-4-yl]quinoline-8-carbonitrile] | 32 nM
Cc1cc(N2CCN(C[C@H]3CN(c4ccc(C#N)c5ncccc45)C[C@@H](C)O3)CC2)nc(N2CC(N)C(F)(F)C2)n1 (stereo partly drawn) [Example 63, 5-[(2S,6R)-2-[[4-[2-(4-amino-3,3-difluoro-pyrrolidin-1-yl)-6-methyl-pyrimidin-4-yl]piperazin-1-yl]methyl]-6-methyl-morpholin-4-yl]quinoline-8-carbonitrile] | 246 nM
Cc1cc(N2CCN(C[C@H]3CN(c4ccc(C#N)c5nccnc45)C[C@@H](C)O3)CC2)nc(N2CCNCC2)n1 [Example 64, 8-[(2R,6S)-2-methyl-6-[[4-(6-methyl-2-piperazin-1-yl-pyrimidin-4-yl)piperazin-1-yl]methyl]morpholin-4-yl]quinoxaline-5-carbonitrile] | 35 nM
Cc1cc(N2CCN(C[C@H]3CN(c4ccc(C(F)(F)F)c5nccnc45)C[C@@H](C)O3)CC2)nc(N2CCNCC2)n1 [Example 65, (2R,6S)-2-methyl-6-[[4-(6-methyl-2-piperazin-1-yl-pyrimidin-4-yl)piperazin-1-yl]methyl]-4-[8-(trifluoromethyl)quinoxalin-5-yl]morpholine] | 129 nM
Cc1cc(N2CCN(C[C@H]3CN(c4ccc(C#N)c5ncccc45)C[C@@H](C)O3)CC2)nc(N2CCNCC(O)C2)n1 (stereo partly drawn) [Example 66, 5-[(2S,6R)-2-[[4-[2-(6-hydroxy-1,4-diazepan-1-yl)-6-methyl-pyrimidin-4-yl]piperazin-1-yl]methyl]-6-methyl-morpholin-4-yl]quinoline-8-carbonitrile] | 32 nM
Cc1cc(N2CCN(C[C@H]3CN(c4ccc(C#N)n5ncc(F)c45)C[C@@H](C)O3)CC2)nc(N2CCNCC2)n1 [Example 67, 3-Fluoro-4-[(2R,6S)-2-methyl-6-[[4-(6-methyl-2-piperazin-1-yl-pyrimidin-4-yl)piperazin-1-yl]methyl]morpholin-4-yl]pyrazolo[1,5-a]pyridine-7-carbonitrile] | 81 nM
Cc1cc(N2CCNCC2)nc(N2CCN(C[C@H]3CN(c4ccc(C#N)c5ncccc45)C[C@@H](C)O3)CC2)n1 [Example 68, 5-[(2R,6S)-2-methyl-6-[[4-(4-methyl-6-piperazin-1-yl-pyrimidin-2-yl)piperazin-1-yl]methyl]morpholin-4-yl]quinoline-8-carbonitrile] | 95 nM
C[C@@H]1CN(c2cc(=O)n(C)c3ncccc23)C[C@H](CN2CC(c3ccc(N4CCNCC4)cc3)C2)O1 [Example 171, 1-methyl-4-[(2R,6S)-2-methyl-6-[[3-(4-piperazin-1-ylphenyl)azetidin-1-yl]methyl]morpholin-4-yl]-1,8-naphthyridin-2-one] | 35 nM
C[C@@H]1CN(c2cc(=O)n(C)c3ncccc23)C[C@H](CN2CC(c3ccc(N4CC5(CNCCO5)C4)cc3)C2)O1 [Example 173, 1-methyl-4-[(2R,6S)-2-methyl-6-[[3-[4-(5-oxa-2,8-diazaspiro[3.5]nonan-2-yl)phenyl]azetidin-1-yl]methyl]morpholin-4-yl]-1,8-naphthyridin-2-one] | 60 nM
C[C@@H]1CN(c2cc(=O)n(C)c3ncccc23)C[C@H](CN2CC(c3ccc(N4CC(C)(N)C4)cc3)C2)O1 [Example 176, 4-[(2S,6R)-2-[[3-[4-(3-amino-3-methyl-azetidin-1-yl)phenyl]azetidin-1-yl]methyl]-6-methyl-morpholin-4-yl]-1-methyl-1,8-naphthyridin-2-one] | 101 nM
